From ChEMBL document CHEMBL1697723, “A predictive ligand-based Bayesian model for human drug-induced liver injury” (Drug Metab Dispos, 2010)

Test system: Hepatotoxicity
Experiment: Human drug-induced liver injury (DILI) modelling dataset from Ekins et al
Conditions: not given

Compound	Hepatotoxicity
COc1cc(NC(C)CCCN)c2ncccc2c1.O=P(O)(O)O.O=P(O)(O)O (centres undefined) [PRIMAQUINE PHOSPHATE]	DILI negative (training set)
C[C@H](N)Cc1ccccc1.C[C@H](N)Cc1ccccc1.O=S(=O)(O)O [DEXTROAMPHETAMINE SULFATE]	DILI positive (test set)
NCCCCCC(=O)O [AMINOCAPROIC ACID]	DILI negative (test set)
C=C1CC[C@@]2(O)[C@H]3Cc4ccc(O)c5c4[C@@]2(CCN3CC2CC2)[C@H]1O5	DILI negative (training set)
AUROTHIOLAMATE	DILI positive (test set)
CC(C(=O)O)c1ccc(-c2ccccc2)c(F)c1 (centres undefined) [FLURBIPROFEN]	DILI positive (training set)
C[C@]12CC[C@@H]3c4ccc(O)cc4CC[C@H]3[C@@H]1CC[C@@H]2O [ESTRADIOL]	DILI negative (training set)
Cn1nnnc1SCC1=C(C(=O)[O-])N2C(=O)[C@@H](NC(=O)[C@H](O)c3ccccc3)[C@H]2SC1.[Na+] [CEFAMANDOLE SODIUM]	DILI positive (test set)
CC(CN1c2ccccc2Sc2ccccc21)N(C)C.Cl (centres undefined) [PROMETHAZINE HYDROCHLORIDE]	DILI negative (training set)
NN [HYDRAZINE]	DILI positive (test set)
AUROTHIOGLUCOSE	DILI positive (test set)
Nc1nc(=O)[nH]cc1F [FLUCYTOSINE]	DILI positive (training set)
O=C(O)P(=O)(O)O [FOSCARNET]	DILI negative (test set)
Cl.NC12CC3CC(CC(C3)C1)C2 [AMANTADINE HYDROCHLORIDE]	DILI negative (training set)
CC(=O)N1CCN(c2ccc(OCC3COC(Cn4ccnc4)(c4ccc(Cl)cc4Cl)O3)cc2)CC1 (centres undefined) [KETOCONAZOLE]	DILI positive (test set)
CC[C@]1(O)C[C@H]2CN(CCc3c([nH]c4ccccc34)[C@@](C(=O)OC)(c3cc4c(cc3OC)N(C=O)[C@H]3[C@@](O)(C(=O)OC)[C@H](OC(C)=O)[C@]5(CC)C=CCN6CC[C@]43[C@@H]65)C2)C1.O=S(=O)(O)O [VINCRISTINE SULFATE]	DILI positive (test set)
CYANOCOBALAMIN	DILI negative (training set)
Cc1cn([C@H]2C=C[C@@H](CO)O2)c(=O)[nH]c1=O [STAVUDINE]	DILI positive (training set)
CN1C(C(=O)Nc2ccccn2)=C(O)c2ccccc2S1(=O)=O [PIROXICAM]	DILI positive (training set)
CC(C)OC(=O)C(C)(C)Oc1ccc(C(=O)c2ccc(Cl)cc2)cc1 [FENOFIBRATE]	DILI positive (training set)

Compound	Hepatotoxicity
C[C@H]1[C@H](NC(=O)/C(=N\OC(C)(C)C(=O)O)c2csc(N)n2)C(=O)N1S(=O)(=O)O [AZTREONAM]	DILI negative (training set)
CN(C)C(=O)C(CCN1CCC(O)(c2ccc(Cl)cc2)CC1)(c1ccccc1)c1ccccc1.Cl [LOPERAMIDE HYDROCHLORIDE]	DILI negative (training set)
CN(C)C(=O)Oc1cc(OC(=O)N(C)C)cc(C(O)CNC(C)(C)C)c1 (centres undefined) [BAMBUTEROL]	DILI negative (training set)
CC1=C(C(=O)O)N2C(=O)[C@@H](NC(=O)[C@H](N)C3=CCC=CC3)[C@H]2SC1 [CEPHRADINE]	DILI negative (test set)
CCCCCCCCCCCCCCCC(=O)OC/C=C(C)/C=C/C=C(C)/C=C/C1=C(C)CCCC1(C)C [VITAMIN A PALMITATE]	DILI positive (test set)
C=C1c2cccc(O)c2C(=O)C2=C(O)[C@]3(O)C(=O)C(C(N)=O)=C(O)[C@@H](N(C)C)[C@@H]3[C@@H](O)[C@H]12.Cl [METHACYCLINE HYDROCHLORIDE]	DILI positive (training set)
C[C@H](CCC(=O)O)[C@H]1CC[C@H]2[C@@H]3[C@@H](O)C[C@@H]4C[C@H](O)CC[C@]4(C)[C@H]3CC[C@]12C [URSODIOL]	DILI negative (training set)
O[C@H]1[C@H](O)[C@@H](O)[C@H](O)[C@@H](O)[C@H]1O [INOSITOL]	DILI negative (test set)
CC(COc1ccccc1)N(CCCl)Cc1ccccc1.Cl (centres undefined) [PHENOXYBENZAMINE HYDROCHLORIDE]	DILI negative (training set)
O=C1CCC(=O)N1c1cc(Cl)cc(Cl)c1 [DIMETHACHLON]	DILI positive (test set)
O=C1O[C@H]([C@@H](O)CO)C(O)=C1O [ASCORBIC ACID]	DILI negative (training set)
CC(=O)OCC(=O)[C@@]1(O)CC[C@H]2[C@@H]3CCC4=CC(=O)CC[C@]4(C)[C@@]3(F)[C@@H](O)C[C@@]21C [FLUDROCORTISONE ACETATE]	DILI negative (training set)
CARBOPLATIN	DILI positive (test set)
CC(CCc1ccc(O)cc1)NCCc1ccc(O)c(O)c1.Cl (centres undefined) [DOBUTAMINE HYDROCHLORIDE]	DILI negative (training set)
C#C[C@]1(O)CC[C@H]2[C@@H]3CCC4=Cc5oncc5C[C@]4(C)[C@H]3CC[C@@]21C [DANAZOL]	DILI positive (training set)
COC(=O)C1=C(C)NC(C)=C(C(=O)OC)C1c1ccccc1[N+](=O)[O-] [NIFEDIPINE]	DILI positive (training set)
C=CCO [ALLYL ALCOHOL]	DILI positive (test set)
CCCSc1ccc2nc(NC(=O)OC)[nH]c2c1 [ALBENDAZOLE]	DILI positive (training set)
Cc1cc(CC(=O)O)n(C)c1C(=O)c1ccc(Cl)cc1 [ZOMEPIRAC]	DILI negative (training set)
CC[N+](CC)(CC)CCOc1cccc(OCC[N+](CC)(CC)CC)c1OCC[N+](CC)(CC)CC.[I-].[I-].[I-] [GALLAMINE TRIETHIODIDE]	DILI negative (training set)

Compound	Hepatotoxicity
C[n+]1ccc(-c2cc[n+](C)cc2)cc1	DILI positive (test set)
CN(C)CCCN1c2ccccc2CCc2ccc(Cl)cc21 [CLOMIPRAMINE]	DILI positive (training set)
POTASSIUM DICHROMATE	DILI positive (training set)
COc1cccc2c1C(=O)c1c(O)c3c(c(O)c1C2=O)C[C@@](O)(C(=O)CO)C[C@@H]3O[C@H]1C[C@H](N)[C@H](O)[C@H](C)O1.Cl [DOXORUBICIN HYDROCHLORIDE]	DILI positive (test set)
Cc1oncc1C(=O)Nc1ccc(C(F)(F)F)cc1 [LEFLUNOMIDE]	DILI positive (training set)
NCC1(CC(=O)O)CCCCC1 [GABAPENTIN]	DILI negative (training set)
CC(C)(Oc1ccc(C2CC2(Cl)Cl)cc1)C(=O)O (centres undefined) [CIPROFIBRATE]	DILI positive (training set)
C[N+](C)(C)CC(=O)O.[Cl-] [BETAINE HYDROCHLORIDE]	DILI negative (test set)
CN(C)CCC=C1c2ccccc2CCc2ccccc21.Cl [AMITRIPTYLINE HYDROCHLORIDE]	DILI negative (training set)
CCOC(=O)C1(c2ccccc2)CCN(CCC(C#N)(c2ccccc2)c2ccccc2)CC1.Cl [DIPHENOXYLATE HYDROCHLORIDE]	DILI negative (test set)
COc1cc2c(c(OC)c1OC)-c1ccc(OC)c(=O)cc1[C@@H](NC(C)=O)CC2 [COLCHICINE]	DILI negative (training set)
Clc1ccc(CSC(Cn2ccnc2)c2ccc(Cl)cc2Cl)cc1.O=[N+]([O-])O (centres undefined) [SULCONAZOLE NITRATE]	DILI negative (test set)
C[C@H](CCC(=O)O)[C@H]1CC[C@H]2[C@@H]3[C@H](O)C[C@@H]4C[C@H](O)CC[C@]4(C)[C@H]3CC[C@]12C [CHENODIOL]	DILI positive (training set)
CN(C)CCn1nnnc1SCC1=C(C(=O)O)N2C(=O)[C@@H](NC(=O)Cc3csc(N)n3)[C@H]2SC1.Cl.Cl [CEFOTIAM HYDROCHLORIDE]	DILI positive (test set)
CN[C@@H]1[C@H](O)[C@H](NC)[C@H]2O[C@@]3(O)C(=O)C[C@@H](C)O[C@H]3O[C@@H]2[C@H]1O.Cl	DILI positive (test set)
O=c1[nH]c(=O)n([C@H]2C[C@H](O)[C@@H](CO)O2)cc1I [IDOXURIDINE]	DILI positive (training set)
CC(=O)CC(c1ccc([N+](=O)[O-])cc1)c1c(O)c2ccccc2oc1=O (centres undefined) [ACENOCOUMAROL]	DILI positive (test set)
C=C[C@H]1CN2CC[C@H]1C[C@H]2[C@H](O)c1ccnc2ccc(OC)cc12.C=C[C@H]1CN2CC[C@H]1C[C@H]2[C@H](O)c1ccnc2ccc(OC)cc12.O.O.O=S(=O)(O)O [QUININE SULFATE]	DILI positive (test set)
Cc1nc2n(c(=O)c1CCN1CCC(c3noc4cc(F)ccc34)CC1)CCCC2 [RISPERIDONE]	DILI positive (training set)
Clc1ccc(COC(Cn2ccnc2)c2ccc(Cl)cc2Cl)cc1.O=[N+]([O-])O (centres undefined) [ECONAZOLE NITRATE]	DILI negative (test set)

Same assay, conditions: Liver

Compound	Hepatotoxicity
NC(N)=Nc1nc(CSCCC(N)=NS(N)(=O)=O)cs1 [FAMOTIDINE]	DILI negative (training set)
OC(Cn1cncn1)(Cn1cncn1)c1ccc(F)cc1F [FLUCONAZOLE]	DILI positive (training set)
CC[C@H]1OC(=O)[C@H](C)C(=O)[C@H](C)[C@@H](O[C@@H]2O[C@H](C)C[C@H](N(C)C)[C@H]2O)[C@](C)(OC)C[C@@H](C)C(=O)[C@H](C)[C@H]2N(CCCCn3cnc(-c4cccnc4)c3)C(=O)O[C@]12C [TELITHROMYCIN]	DILI positive (test set)
Cc1ncc(CO)c(CO)c1O [PYRIDOXINE]	DILI negative (training set)
Nc1ccc(S(=O)(=O)c2ccc(N)cc2)cc1 [DAPSONE]	DILI positive (training set)
CC(=O)O[C@H]1C(=O)[C@@]2(C)[C@H]([C@H](OC(=O)c3ccccc3)[C@]3(O)C[C@H](OC(=O)[C@H](O)[C@@H](NC(=O)c4ccccc4)c4ccccc4)C(C)=C1C3(C)C)[C@]1(OC(C)=O)CO[C@@H]1C[C@@H]2O [PACLITAXEL]	DILI positive (test set)
Cl[C@H]1[C@H](Cl)[C@@H](Cl)[C@H](Cl)[C@@H](Cl)[C@@H]1Cl [BETA-HEXACHLOROCYCLOHEXANE]	DILI positive (training set)
CC(C)NCC(O)COc1ccc(CC(N)=O)cc1 (centres undefined) [ATENOLOL]	DILI negative (training set)
NC(CO)(CO)CO [TROMETHAMINE]	DILI negative (test set)
